Among the data in patent US10174035B2, “6-morpholinyl-2-pyrazolyl-9H-purine derivatives and their use as PI3K inhibitors” (Daiichi Sankyo Company, Limited, priority 2015, dated 2019) are IC50 values, retold here.

This assay concerns the target recombinant PI3K δ enzyme (Homo sapiens (Human), UniProt O00329). The assay is described as follows: In vitro enzyme assay (Kinase-Glo luminescent kinase assay), PI3Kδ. The class given is biochemical. The protocol: The Kinase-Glo luminescent kinase assay kit (from Promega) was used to measure kinase activity. In this assay, amount of ATP remaining in solution following a kinase reaction is measured. The effect of compounds on PI3Kδ inhibition was carried out by adding 2.29 μg/ml of recombinant PI3K δ enzyme (Proteros, Germany) to reaction mixture containing assay buffer (50 mM HEPES, pH 7.4, 50 mM NaCl, 0.05% CHAPS) supplemented with 10 mM MgCl2, 5 mM DTT, 60 μM Phosphatidyl inositol bisphosphate (PIP2) and 10 μM ATP in the absence or presence of different concentrations of the compounds in a final volume of 15 μl/well, in a 384 well plate. The reaction mixture was incubated for 2 hours at room temperature. At the end of incubation period the equal volume of Kinase-Glo plus (Promega, V3772), was added per well and the luminescence was measured after incubating for 10 minutes at room temperature in dark. Results were calculated by measuring the luminescence units of test samples to blanks containing no enzyme.
The compounds of the present invention were tested for their selectivity for PI3Kδ over PI3Kα, PI3Kβ and PI3Kγ following the above assay using specific recombinant enzymes (Proteros, Germany) for each kinase. Assay condition of kinase assay (PI3Kα, PI3Kβ, PI3Kγ and PI3Kδ) was as follows. Enzyme: 2.29 μg/mL; ATP: 10 μM; PIP2 substrate: 60 μM and Reaction Time: 2 hours.
A general note: Kinase-Glo measures the ATP left after a reaction by luminescence.

Chain of recombinant PI3K δ enzyme (O00329 whole entry, species assumed): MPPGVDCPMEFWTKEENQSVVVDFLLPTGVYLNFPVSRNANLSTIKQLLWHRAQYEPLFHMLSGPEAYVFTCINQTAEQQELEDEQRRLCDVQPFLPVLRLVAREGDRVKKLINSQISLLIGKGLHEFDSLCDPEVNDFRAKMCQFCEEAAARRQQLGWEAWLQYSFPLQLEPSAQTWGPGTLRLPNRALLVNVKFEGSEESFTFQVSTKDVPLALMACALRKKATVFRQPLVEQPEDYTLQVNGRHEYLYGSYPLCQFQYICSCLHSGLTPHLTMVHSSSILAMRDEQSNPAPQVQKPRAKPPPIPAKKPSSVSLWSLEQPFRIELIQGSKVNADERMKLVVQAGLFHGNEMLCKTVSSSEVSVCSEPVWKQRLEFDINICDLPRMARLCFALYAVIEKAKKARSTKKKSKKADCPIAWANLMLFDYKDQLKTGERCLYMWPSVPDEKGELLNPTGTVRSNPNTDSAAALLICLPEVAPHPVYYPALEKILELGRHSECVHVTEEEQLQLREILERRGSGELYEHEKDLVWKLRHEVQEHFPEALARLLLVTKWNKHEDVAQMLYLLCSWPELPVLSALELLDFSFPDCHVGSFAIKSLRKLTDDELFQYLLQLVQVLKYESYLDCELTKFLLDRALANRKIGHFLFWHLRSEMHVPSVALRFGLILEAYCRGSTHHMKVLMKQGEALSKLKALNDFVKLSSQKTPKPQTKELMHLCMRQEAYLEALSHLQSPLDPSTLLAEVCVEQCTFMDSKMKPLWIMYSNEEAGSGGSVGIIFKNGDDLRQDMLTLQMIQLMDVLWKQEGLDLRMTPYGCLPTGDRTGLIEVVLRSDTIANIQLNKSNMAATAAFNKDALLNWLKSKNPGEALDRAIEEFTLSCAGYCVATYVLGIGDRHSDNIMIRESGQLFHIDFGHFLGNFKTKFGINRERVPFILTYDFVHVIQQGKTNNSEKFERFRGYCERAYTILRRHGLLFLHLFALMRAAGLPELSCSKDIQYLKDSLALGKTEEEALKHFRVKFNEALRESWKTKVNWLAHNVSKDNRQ
Chain of recombinant PI3K δ enzyme (P27986 whole entry partner, species assumed): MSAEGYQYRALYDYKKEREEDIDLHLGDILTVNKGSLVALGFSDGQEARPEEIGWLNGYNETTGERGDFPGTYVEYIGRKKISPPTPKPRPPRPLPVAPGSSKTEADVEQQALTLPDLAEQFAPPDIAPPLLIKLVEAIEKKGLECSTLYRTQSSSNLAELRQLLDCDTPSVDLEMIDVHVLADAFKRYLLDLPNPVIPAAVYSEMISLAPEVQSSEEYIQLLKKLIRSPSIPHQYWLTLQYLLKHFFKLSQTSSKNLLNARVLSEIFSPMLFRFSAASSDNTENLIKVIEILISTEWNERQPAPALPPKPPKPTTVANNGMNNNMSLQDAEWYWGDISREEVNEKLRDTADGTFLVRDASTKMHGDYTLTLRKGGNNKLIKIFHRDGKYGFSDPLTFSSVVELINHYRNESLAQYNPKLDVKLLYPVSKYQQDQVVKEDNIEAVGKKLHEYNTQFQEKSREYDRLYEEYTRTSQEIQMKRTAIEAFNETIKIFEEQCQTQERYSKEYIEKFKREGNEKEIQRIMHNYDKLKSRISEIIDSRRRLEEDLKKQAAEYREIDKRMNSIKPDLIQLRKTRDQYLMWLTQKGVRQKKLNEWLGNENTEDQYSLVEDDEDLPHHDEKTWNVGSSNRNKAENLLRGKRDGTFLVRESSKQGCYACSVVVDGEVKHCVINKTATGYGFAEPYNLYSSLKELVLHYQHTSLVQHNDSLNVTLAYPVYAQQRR

With `Cn1cc(-c2nc(N3CCOCC3)c3nc(C(=O)N4CCN(C(=O)Cc5cnccn5)CC4)[nH]c3n2)cn1` [compound 29, 1-(4-{[2-(1-Methyl-1H-pyrazol-4-yl)-6-(morpholin-4-yl)-9H-purin-8-yl]carbonyl}piperazin-1-yl)-2-(pyrazin-2-yl)ethanone], the IC50 was 0.14 µM.

On to `Cn1cc(-c2nc(N3CCOCC3)c3nc(C(=O)N4CCn5ccnc5C4)[nH]c3n2)cn1` [compound 30, 5,6-Dihydroimidazo[1,2-a]pyrazin-7(8H)-yl[2-(1-methyl-1H-pyrazol-4-yl)-6-(morpholin-4-yl)-9H-purin-8-yl]methanone], for which the IC50 came to 0.627 µM.

As for `Cn1cc(-c2nc(N3CCOCC3)c3nc(C(=O)N4CCNC(=O)C4)[nH]c3n2)cn1` [compound 31, 4-{[2-(1-Methyl-1H-pyrazol-4-yl)-6-(morpholin-4-yl)-9H-purin-8-yl]carbonyl}piperazin-2-one], the half-inhibitory concentration (IC50) turned out to be 0.465 µM.

As to `Cn1cc(-c2nc(N3CCOCC3)c3nc(C(=O)N4CCN(c5ccccc5)CC4)[nH]c3n2)cn1` [compound 32, [2-(1-Methyl-1H-pyrazol-4-yl)-6-(morpholin-4-yl)-9H-purin-8-yl](4-phenylpiperazin-1-yl)methanone], the half-maximal inhibitory concentration (IC50) was 0.056 µM.

Consider `Cn1cc(-c2nc(N3CCOCC3)c3nc(C(=O)NC4CCCCC4)[nH]c3n2)cn1` [compound 33, N-cyclohexyl-2-(1-methyl-1H-pyrazol-4-yl)-6-(morpholin-4-yl)-9H-purine-8-carboxamide], for which the IC50 was 0.366 µM.

As for `Cn1cc(-c2nc(N3CCOCC3)c3nc(C(=O)N4CCN(S(C)(=O)=O)CC4)[nH]c3n2)cn1` [compound 34, [2-(1-Methyl-1H-pyrazol-4-yl)-6-(morpholin-4-yl)-9H-purin-8-yl][4-(methylsulfonyl)piperazin-1-yl]methanone], the half-inhibitory concentration (IC50) worked out at 0.305 µM.

On to `Cn1cc(-c2nc(N3CCOCC3)c3nc(C(=O)N4CCC(c5ccccc5)CC4)[nH]c3n2)cn1` [compound 35, [2-(1-Methyl-1H-pyrazol-4-yl)-6-(morpholin-4-yl)-9H-purin-8-yl](4-phenylpiperidin-1-yl)methanone], for which the 50% inhibitory concentration (IC50) turned out to be 0.017 µM.

In the case of `Cn1cc(-c2nc(N3CCOCC3)c3nc(C(=O)NCC4CCCCC4)[nH]c3n2)cn1` [compound 36, N-(Cyclohexylmethyl)-2-(1-methyl-1H-pyrazol-4-yl)-6-(morpholin-4-yl)-9H-purine-8-carboxamide], the IC50 worked out at 0.015 µM.

Take `CC(=O)N[C@H]1CCN(C(=O)c2nc3c(N4CCOCC4)nc(-c4cnn(C)c4)nc3[nH]2)C1` [compound 37, N-[(3S)-1-{[2-(1-methyl-1H-pyrazol-4-yl)-6-(morpholin-4-yl)-9H-purin-8-yl]carbonyl}pyrrolidin-3-yl]acetamide]: the IC50 stood at 0.031 µM.

Regarding `Cn1cc(-c2nc(N3CCOCC3)c3nc(C(=O)N4CC[C@@H](NS(C)(=O)=O)C4)[nH]c3n2)cn1` [compound 38, N-[(3R)-1-{[2-(1-methyl-1H-pyrazol-4-yl)-6-(morpholin-4-yl)-9H-purin-8-yl]carbonyl}pyrrolidin-3-yl]methanesulfonamide], the concentration for half-maximal inhibition (IC50) turned out to be 0.02 µM.

As for `CC(=O)N1CCN(C(=O)c2nc3c(N4CCOCC4)nc(-c4cnn(C)c4)nc3[nH]2)CC1` [compound 39, 1-(4-{[2-(1-Methyl-1H-pyrazol-4-yl)-6-(morpholin-4-yl)-9H-purin-8-yl]carbonyl}piperazin-1-yl)ethanone], the half-inhibitory concentration (IC50) was 0.026 µM.

In the case of `Cc1c(-c2nc(N3CCOCC3)c3nc(C(=O)N4CCC(N5CCOCC5)CC4)[nH]c3n2)cnn1C` [compound 40, [2-(1,5-Dimethyl-1H-pyrazol-4-yl)-6-(morpholin-4-yl)-9H-purin-8-yl][4-(morpholin-4-yl)piperidin-1-yl]methanone], the half-inhibitory concentration (IC50) stood at 0.028 µM.

With `Cn1cc(-c2nc(N3CCOCC3)c3nc(C(=O)N4CCN(C(=O)OC(C)(C)C)CC4)[nH]c3n2)cn1` [compound 43, Tert-butyl 4-{[2-(1-methyl-1H-pyrazol-4-yl)-6-(morpholin-4-yl)-9H-purin-8-yl]carbonyl}piperazine-1-carboxylate], the IC50 turned out to be 0.057 µM.

Regarding `CN(C)[C@H]1CCN(C(=O)c2nc3c(N4CCOCC4)nc(-c4cnn(C)c4)nc3[nH]2)C1` [compound 44, [(3S)-3-(Dimethylamino)pyrrolidin-1-yl][2-(1-methyl-1H-pyrazol-4-yl)-6-(morpholin-4-yl)-9H-purin-8-yl]methanone], the IC50 is 0.076 µM.

For `CCOC(=O)CN1CCN(C(=O)c2nc3c(N4CCOCC4)nc(-c4cnn(C)c4)nc3[nH]2)CC1` [compound 45, Ethyl (4-{[2-(1-methyl-1H-pyrazol-4-yl)-6-(morpholin-4-yl)-9H-purin-8-yl]carbonyl}piperazin-1-yl)acetate], the IC50 came to 0.048 µM.

For the compound `CN1CCN(C(=O)c2nc3c(N4CCOCC4)nc(-c4cnn(C)c4)nc3[nH]2)CC1` [compound 46, (4-Methylpiperazin-1-yl)[2-(1-methyl-1H-pyrazol-4-yl)-6-(morpholin-4-yl)-9H-purin-8-yl]methanone], the IC50 was 0.069 µM.

For `CN1CCC(NC(=O)c2nc3c(N4CCOCC4)nc(-c4cnn(C)c4)nc3[nH]2)CC1` [compound 47, N-(1-Methylpiperidin-4-yl)-2-(1-methyl-1H-pyrazol-4-yl)-6-(morpholin-4-yl)-9H-purine-8-carboxamide], the IC50 amounted to 0.139 µM.

Turning to `CN(C)C(=O)c1nc2c(N3CCOCC3)nc(-c3cnn(C)c3)nc2[nH]1` [compound 48, N,N-Dimethyl-2-(1-methyl-1H-pyrazol-4-yl)-6-(morpholin-4-yl)-9H-purine-8-carboxamide], the IC50 worked out at 0.076 µM.

Regarding `Cn1cc(-c2nc(N3CCOCC3)c3nc(C(=O)NC4CCN(Cc5ccccc5)CC4)[nH]c3n2)cn1` [compound 49, N-(1-Benzylpiperidin-4-yl)-2-(1-methyl-1H-pyrazol-4-yl)-6-(morpholin-4-yl)-9H-purine-8-carboxamide], the IC50 was 0.062 µM.

For the compound `Cn1cc(-c2nc(N3CCOCC3)c3nc(C(=O)N4CCC(CC(=O)O)CC4)[nH]c3n2)cn1` [compound 50, (1-{[2-(1-Methyl-1H-pyrazol-4-yl)-6-(morpholin-4-yl)-9H-purin-8-yl]carbonyl}piperidin-4-yl)acetic acid], the half-maximal inhibitory concentration (IC50) was determined as 0.205 µM.

`CCOC(=O)CC1CCN(C(=O)c2nc3c(N4CCOCC4)nc(-c4cnn(C)c4)nc3[nH]2)CC1` [compound 51, Ethyl (1-{[2-(1-methyl-1H-pyrazol-4-yl)-6-(morpholin-4-yl)-9H-purin-8-yl]carbonyl}piperidin-4-yl)acetate]: the IC50 came to 0.056 µM.

In the case of `COCCNC(=O)c1nc2c(N3CCOCC3)nc(-c3cnn(C)c3)nc2[nH]1` [compound 52, N-(2-Methoxyethyl)-2-(1-methyl-1H-pyrazol-4-yl)-6-(morpholin-4-yl)-9H-purine-8-carboxamide], the IC50 is 0.231 µM.

Take `Cn1cc(-c2nc(N3CCOCC3)c3nc(C(=O)N4CCCCC4)[nH]c3n2)cn1` [compound 53, [2-(1-Methyl-1H-pyrazol-4-yl)-6-(morpholin-4-yl)-9H-purin-8-yl](piperidin-1-yl)methanone]: the concentration for half-maximal inhibition (IC50) came out at 0.088 µM.

`CN(C)C1CCN(C(=O)c2nc3c(N4CCOCC4)nc(-c4cnn(C)c4)nc3[nH]2)CC1` [compound 57, [4-(Dimethylamino)piperidin-1-yl][2-(1-methyl-1H-pyrazol-4-yl)-6-(morpholin-4-yl)-9H-purin-8-yl]methanone]: the concentration for half-maximal inhibition (IC50) came out at 0.068 µM.

Take `CCN(CCN1CCOCC1)C(=O)c1nc2c(N3CCOCC3)nc(-c3cnn(C)c3)nc2[nH]1` [compound 59, N-ethyl-2-(1-methyl-1H-pyrazol-4-yl)-6-(morpholin-4-yl)-N-[2-(morpholin-4-yl)ethyl]-9H-purine-8-carboxamide]: the half-inhibitory concentration (IC50) came out at 0.206 µM.

On to `CN(CCN1CCOCC1)C(=O)c1nc2c(N3CCOCC3)nc(-c3cnn(C)c3)nc2[nH]1` [compound 60, N-methyl-2-(1-methyl-1H-pyrazol-4-yl)-6-(morpholin-4-yl)-N-[2-(morpholin-4-yl)ethyl]-9H-purine-8-carboxamide], for which the IC50 was found to be 0.159 µM.

Take `Cn1cc(-c2nc(N3CCOCC3)c3nc(C(=O)N4CC[C@H](O)C4)[nH]c3n2)cn1` [compound 62, [(3S)-3-Hydroxypyrrolidin-1-yl][2-(1-methyl-1H-pyrazol-4-yl)-6-(morpholin-4-yl)-9H-purin-8-yl]methanone]: the half-maximal inhibitory concentration (IC50) turned out to be 0.061 µM.

With `Cn1cc(-c2nc(N3CCOCC3)c3nc(C(=O)NCCCN4CCOCC4)[nH]c3n2)cn1` [compound 63, 2-(1-Methyl-1H-pyrazol-4-yl)-6-(morpholin-4-yl)-N-[3-(morpholin-4-yl)propyl]-9H-purine-8-carboxamide], the half-inhibitory concentration (IC50) was found to be 0.021 µM.

Consider `Cc1n[nH]cc1-c1nc(N2CCOCC2)c2nc(C(=O)N3CCC(N4CCOCC4)CC3)[nH]c2n1` [compound 66, [2-(3-Methyl-1H-pyrazol-4-yl)-6-(morpholin-4-yl)-9H-purin-8-yl][4-(morpholin-4-yl)piperidin-1-yl]methanone], for which the IC50 is 0.021 µM.

With `CCN(CCCN1CCOCC1)C(=O)c1nc2c(N3CCOCC3)nc(-c3cnn(C)c3)nc2[nH]1` [compound 69, N-ethyl-2-(1-methyl-1H-pyrazol-4-yl)-6-(morpholin-4-yl)-N-[3-(morpholin-4-yl)propyl]-9H-purine-8-carboxamide], the IC50 is 0.061 µM.

A word on the IC50: it is the midpoint of a concentration-inhibition curve.
